One series has as its system PC12 cells. Kind of series: In vitro neuroprotection against oxygen glucose deprivation (OGD), MTT viability readout. The class given is cell-based. As to conditions: OGD 90 min, reoxygenation, furoxan 1, 10 or 25 μM, 24 hr. As to the method: (§1) FIGS. 3A-3C: Neuroprotection (FIG. 3A), MTT treatment was used to assess cell viability (FIG. 3B), and pCREB modulation (FIG. 3C) of furoxan compounds. Neuroprotection assay workflow: expose PC12 cells to oxygen glucose deprivation (OGD) for 90 min→reoxygenate and add furoxan (1, 10, or 25 μM)→incubate for 24 hr→MTT readout of viability. Data represented as mean and s.e.m. (n=3). *=p<0.05, **=p<0.01, ***=p<0.001 compared to vehicle control using one way ANOVA analysis with Dunnett's post-hoc test. Red dashed line indicates threshold of vehicle effects. For pCREB modulation, 31b (25 μM) was examined (PC-12 cells, 48 hr incubation) in the following: without insult, with OGD, L-NAME.
It has been shown that furoxans are protective against oxygen glucose deprivation (OGD), a commonly used cellular model of ischemic stroke. PC12 cells were submitted to OGD for 90 minutes followed by reoxygenation and treatment with varying concentrations of selected embodiments of compounds of Formula I (indicated in FIG. 3A). After 24 hr, MTT treatment was used to assess cell viability (FIG. 3B). […] It has been shown previously that 4-N-oxides release NO at a much slower rate than corresponding 2-N-oxides.

For another series, the system named is pCREB. Kind of series: pCREB modulation in PC-12 cells (without insult, with OGD, L-NAME). Type of series: cell-based. The settings on record: 31b 25 μM, 48 hr incubation. As to the method: as §1
Series [1] can be described thus: In vivo pharmacokinetics, plasma and forebrain levels by LC-MS/MS. Set-up: species or system mice. The method, then: FIGS. 6A-6C: The ratio of the AUC of the MRM transition for 31b versus 41b was calculated and the resulting values were normalized based on total protein concentration of samples (determined by Bradford assay). N=4 per group. Data shown as SEM, analysis by one way ANOVA with Tukey's post-test. *=p<0.05. Half-life's were calculated based on first order exponential decay.
31b was administered to mice and specimens were processed according to FIG. 4A. Levels of 31b were determined in the plasma and forebrain after intraperitoneal (ip) and oral (po) administration at varying post-administration time points (1, 2, or 12 hr [N=4 per cohort]). […] A deuterated (d^4) analog of 31b, designated 41b, was synthesized for LC-MS studies. Deuterated internal standards are required for absolute quantitation via LC-MS/MS and are desirable for because they have identical physiochemical properties to their non-deuterated kin, but may be distinguished based on molecular weight. Inclusion of 41b allows for control of extraction efficiency, technique proficiency, and instrumentation sensitivity. Extraction methodology and tandem LC-MS/MS parameters (optimized MRM transitions) were developed and validated via extraction of blank brain tissue spiked with 31b and 41b to develop a calibration curve. In this initial evaluation, the appropriate forebrain and plasma samples were spiked with a fixed concentration of 41b, homogenized in extraction buffer, applied to a solid phase resin cartridge, eluted, concentrated, reconstituted, and analyzed via MRM monitoring using LC-MS/MS. […] There were no significant differences in levels of 31b in the brain (B) versus plasma (P), with an average B:P ratio of 1.6 (±0.8). […] Without wishing to be bound by theory, it is believed that low oral bioavailability of 31b is the result of rapid 1st pass metabolism, since the microsomal stability studies indicate poor hepatic stability. The use of common dosage form strategies likely results in improved oral bioavailability. Alternative administration routes, including intranasal, are also believed to result in high brain bioavailability based on the relativity high lipophilicity of the embodiments tested. […] Moreover, the physiochemical properties proposed as being appropriate for CNS drugs are appropriate. The long residence time of the furoxan (visible in the brain after 12 hr), indicates an ideal scenario for daily dosing.
Forebrain tissue (˜30 mg) was homogenized in 1 ml of tissue extraction buffer (Invitrogen) containing a protease inhibitor cocktail (PIC). 100 μL of the resulting homogenate (or 100 μL of plasma) was spiked with 2% Formic acid (200 μL, containing 41b [0.5 μM]—internal standard) and vortexed for 1 min. The mixture was applied to an Evolute Express ABN column (Biotage) and filtered through via vacuum filtration. The matrix was washed with dH2O (1 mL) and analytes eluted with MeOH (1 mL). The resulting extract was evaporated to dryness by passing over air and reconstituted in ACN/dH2O (100 μL). A 10 μL injection was analyzed by LC-MS/MS. Analysis was carried out on a Shimadzu Nexera XR HPLC coupled with a Shimadzu 8050 triple quadrupole mass spectrometer. LC utilized a Kinetex-core column (Phenomenex): 2.6 um C18 100 A, 100×4.6 mm. HPLC Method: solvents, H2O [0.1% FA]—solvent A; MeOH [0.1% FA]—solvent B; flow rate 1.0 mL/min (utilized Tsplitter, mass spectrometer effective flow rate 0.4 mL/min). Gradient: t=2 min, 5% B; t=6 min, 95% B; t=7.0 min, 95% B; t=7.01, 5% B. Stop time 10 min. Diverter valve was utilized and eluent only averted to MS from 5 min-8 min. Quantity was determined based on the AUC of the internal standard versus the AUC of the analyte peak.

In series [2] the test system is CREB phosphorylation at Ser-133. Kind of series: In vivo pharmacodynamics, hippocampal pCREB:tCREB by ELISA. As to conditions: scopolamine treated mice plus 31b 20 or 40 mg/kg ip.

“Also recorded” adds a separate entry of the source.

The source of these data is patent US10913732B2, “Furoxans as therapies for neurodegenerative disorders” (The University of Toledo, priority 2016, dated 2021).

Regarding `CC1CCN(Cc2no[n+]([O-])c2-c2ccc(F)cc2)CC1` [31b], the “Neuroprotection against OGD (cell viability by MTT)” value in the series with PC12 cells is given as “concentration dependent protection; also recorded: outperform the corresponding 2-N-oxides”. The “Effects of NOS inhibition on pCREB” value in the series with pCREB is reported as “reverses the effects of NOS inhibition on pCREB”. Further, the “Amounts in ip-treated mice compared to oral gavage” value in series [1] (mice) was “significantly higher amounts in ip-treated mice”. In addition, the “Levels in plasma and forebrain after 12 h” value in series [1] (mice, ip and po) was “detectable levels”. Besides, the Oral bioavailability entry in series [1] (mice, po) is given as “low”. Moreover, the Kp in series [1] (mouse, forebrain versus plasma, other: intraperitoneal (ip) and oral (po), averaged together, mice, read-out: Average B:P ratio (brain versus plasma)) is 1.6. The Brain penetration entry in series [1] (mouse, in vivo) is “significant brain penetration”. Moreover, in series [1] (mouse, plasma and forebrain, intraperitoneal and oral, mice, ip and po, first order exponential decay, read-out: In vivo t1/2 for brain and plasma), the half-life is 0.833 to 1.83 h. Moreover, the “Hippocampal pCREB:tCREB ratio” value in series [2] was “trends toward reversal”.
